In brackets after ≈: the same amount, converted by molar mass.

Holding throughout (format): ADME
Data set [1] is described as follows: Evaluated for the solubility in pH 7.4 buffer suspended at 5 mg / mL at 7.4 pH of filtered solution.
The nature of data set [2]: Evaluated for the solubility in 0.10 N HCl at 1.6 pH of filtered solution. The following applies: pH 1.6, read-out: S.
Data set [3] in a line: Evaluated for the solubility in pH 6.0 buffer suspended at 5 mg / mL at 6.0 pH of filtered solution.
A short description of data set [4]: Evaluated for the solubility in water at 4.8 pH of filtered solution. As to conditions: pH 4.8, read-out: S.
A short description of data set [5]: Evaluated the half life period in distilled water at room temperature.
Data set [6] can be described thus: Evaluated the half life period in CH3CN / buffer, pH 7.4 at 37 degree C.
Data set [7] is described as follows: Evaluated for the solubility in water at 5.8 pH of filtered solution. As to conditions: pH 5.8, read-out: S.
Data set [8] can be described thus: Evaluated for the solubility in 0.10 N HCl at 1.5 pH of filtered solution. As to conditions: pH 1.5, read-out: S.
The nature of data set [9]: Evaluated for the solubility in water at 3.3 pH of filtered solution. The following applies: pH 3.3, read-out: S.
Data set [10] in a line: Evaluated for the solubility in water at 3.2 pH of filtered solution. As to conditions: pH 3.2, read-out: S.
The nature of data set [11]: Evaluated for the solubility in 0.10 N HCl at 1.7 pH of filtered solution. The following applies: pH 1.7, read-out: S.

For `CC(C)C[C@H](O)C(O)[C@H](CC1CCCCC1)NC(=O)[C@H](Cc1csc(N)n1)NC(=O)[C@H](Cc1ccccc1)NS(=O)(=O)N1CCOCC1.Cl` (stereo partly drawn), the solubility was found to be 1 µg/mL in data set [1], 6600 µg/mL in data set [2], 1 µg/mL in [3] and 20 µg/mL in [4].
Regarding `CC(C)C[C@H](O)C(OC(=O)[C@H](Cc1csc(N)n1)NC(=O)[C@H](Cc1ccccc1)NS(=O)(=O)N1CCOCC1)[C@@H](N)CC1CCCCC1` (stereo partly drawn), the half-life was greater than 96 h in [5] and 1 min in data set [6].
`CC(C)C[C@H](O)C(O)[C@H](CC1CCCCC1)NC(=O)[C@H](Cc1csc(N)n1)NC(=O)[C@H](Cc1ccccc1)NS(=O)(=O)N1CCOCC1` (stereo partly drawn): in data set [7], the solubility came to 2 µg/mL (≈ 2.82 µM).
`CC(C)C[C@H](O)C(OC(=O)[C@H](Cc1csc(N)n1)NC(=O)[C@H](Cc1ccccc1)NS(=O)(=O)N1CCOCC1)[C@@H](N)CC1CCCCC1.Cl` (stereo partly drawn): the solubility in [8] amounted to 54600 µg/mL; in [9] it was 17600 µg/mL.
On to `CC(C)C[C@H](OC(=O)[C@H](Cc1csc(N)n1)NC(=O)[C@H](Cc1ccccc1)NS(=O)(=O)N1CCOCC1)C(O)[C@@H](N)CC1CCCCC1.Cl` (stereo partly drawn), for which the solubility in [10] was determined as 20900 µg/mL; in [1], 300 µg/mL; in [11], 71300 µg/mL; in data set [3], 1940 µg/mL.

The record behind these values is ChEMBL document CHEMBL1126695, “Orally active water-soluble N,O-acyl transfer products of a beta,gamma-bishydroxyl amide containing renin inhibitor” (J Med Chem, 1993).
